Measurements from patent publication US20250074920A1, “MACROCYCLIC COMPOUNDS AND USE AS KINASE INHIBITORS” (BLOSSOMHILL THERAPEUTICS, INC., priority 2022, published 2025).

Tests used:
Test in all cases: KINOMEscan kinase binding assay
[1] = test system: JAK1(JH1domain-catalytic); conditions: for % Ctrl: JAK1(JH1domain-catalytic), at 1 μM; for Kd: read-out: JAK1(JH1 domain-catalytic) Kd
In short: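 Dissociation constants came from the amount of kinase captured on the solid support across a test compound concentration series. Captured kinase, T7 phage-fused or HEK-293-made and DNA-tagged, was read by qPCR after a 1 h room-temperature binding step.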

[2] = test system: EPHA8; conditions: at 1 μM
In short: (§1)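 Competition binding format: a test compound at a single concentration displaces phage-tagged or DNA-tagged kinase from an immobilized affinity ligand. After washing, kinase is released with 0.5 μM free ligand (30 min, room temperature) and measured by qPCR. Data are given as % Ctrl.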

[3] = test system: MET(Y1235D); conditions: at 1 μM
In short: as §1

[4] = test system: FLT3(D835V); conditions: at 1 μM
In short: as §1

[5] = test system: ABL1(Q252H)-phosphorylated; conditions: at 1 μM
In short: as §1

[6] = test system: TRKB; conditions: at 1 μM
In short: as §1

[7] = test system: FGFR4; conditions: at 1 μM
In short: as §1

[8] = test system: EGFR(L858R); conditions: at 1 μM
In short: as §1

[9] = test system: ABL1-phosphorylated; conditions: at 1 μM
In short: as §1

Structure (SMILES)	% Ctrl [1] [%]	Kd [1] [µM]	% Ctrl [2] [%]	% Ctrl [3] [%]	% Ctrl [4] [%]	% Ctrl [5] [%]	% Ctrl [6] [%]	% Ctrl [7] [%]	% Ctrl [8] [%]	% Ctrl [9] [%]
Cc1cc2c([nH]1)/C=C1\C(=O)Nc3ccc(cc31)-c1c(nn(C)c1C)OCCCN(C)C2=O [Cpd. 1, [3a(4)Z]-6,9,15,16-tetramethyl-9,10,11,12-tetrahydro-15H-1,17-(ethanediylidene)pyrazolo[4,3-n]dipyrrolo[3,2-g:3′,4′-j][1,5]oxazacyclopentadecine-3,8(2H,5H)-dione]	82	> 10	100	98	61	99	87	95	100	81
Cc1cc2c([nH]1)/C=C1\C(=O)Nc3ccc(cc31)-c1c(nn(C)c1C)COCCN(C)C2=O [Cpd. 2, [3a(4)Z]-6,9,15,16-tetramethyl-10,11,13,15-tetrahydro-2H-1,17-(ethanediylidene)pyrazolo[4,3-m]dipyrrolo[3,2-f:3′,4′-i][1,4]oxazacyclopentadecine-3,8(5H,9H)-dione]	100	> 10	92	87	7.9	62	12	100	78	50
Cc1cc2c([nH]1)/C=C1\C(=O)Nc3c(Cl)cc(cc31)-c1cn(C)nc1COC[C@@H](C)NC2=O [Cpd. 3, [3a(4)Z,10R]-20-chloro-6,10,15-trimethyl-10,11,13,15-tetrahydro-2H-1,17-(ethanediylidene)pyrazolo[4,3-m]dipyrrolo[3,2-f:3′,4′-i][1,4]oxazacyclopentadecine-3,8(5H,9H)-dione]	100	> 10	90	100	100	100	100	92	96	96
C[C@@H]1COCc2nn(C)cc2-c2cc(Cl)c3c(c2)/C(=C/c2[nH]ccc2C(=O)N1)C(=O)N3 [Cpd. 4, [3a(4)Z,10R]-20-chloro-10,15-dimethyl-10,11,13,15-tetrahydro-2H-1,17-(ethanediylidene)pyrazolo[4,3-m]dipyrrolo[3,2-f:3′,4′-i][1,4]oxazacyclopentadecine-3,8(5H,9H)-dione]	94	> 10	82	100	75	89	100	88	95	90
Cc1cc2c([nH]1)/C=C1\C(=O)Nc3c(Cl)cc(cc31)-c1cn(C)nc1COC[C@@H](C)N(C)C2=O [Cpd. 5, [3a(4)Z,10R]-20-chloro-6,9,10,15-tetramethyl-10,11,13,15-tetrahydro-2H-1,17-(ethanediylidene)pyrazolo[4,3-m]dipyrrolo[3,2-f:3′,4′-i][1,4]oxazacyclopentadecine-3,8(5H,9H)-dione]	100	> 10	77	100	89	89	100	88	90	79
